The text below walks through data of patent US6124305A, “Use of N-(substituted glycyl)-2-cyanopyrrolidines in inhibiting dipeptidyl peptidase-IV” (Novartis AG, priority 1999, dated 2000).

Counter-ions that a name gives are not always drawn.

One experiment has as its target T1, human plasma DPP-IV (Homo sapiens, UniProt P27487).
T1 construct: DPP-IV activity in human and rat plasma; from tissue; host or cells: human plasma
The experiment is described as follows: human plasma DPP-IV inhibition assay. It is filed as biochemical. Particulars: H-Glycine-Proline-AMC substrate, pH 7.8, room temperature, 20 min.

For a further experiment, the target named is T2, rat plasma DPP-IV (Rattus norvegicus, UniProt P14740).
T2 construct: DPP-IV activity in human and rat plasma; from tissue; host or cells: rat plasma
The experiment is described as follows: rat plasma DPP-IV inhibition assay. It is filed as biochemical. Particulars: H-Glycine-Proline-AMC substrate, pH 7.8, room temperature, 20 min.

A further experiment addresses T3, DPP-IV (Homo sapiens, UniProt P27487).
T3 construct: Cell extract is prepared from cells solubilized in 10 mM Tris-HCl; host or cells: Caco-2
Put plainly: Caco-2 DPP-IV Assay (inhibition of DPP-IV activity from human colonic carcinoma cell extracts). Particulars: human Caco-2 cell extract, H-Alanine-Proline-pNA substrate, pH 7.4, room temperature, 10 minutes. It is filed as biochemical.

A further experiment relates to insulin resistant rats. The experiment is described as follows: early insulin response to an oral glucose challenge in insulin resistant rats. It is filed as in vivo, Male Sprague-Dawley rats. Particulars: 10 μmol/kg orally in CMC, high fat diet rats, oral glucose 1 g/kg 30 minutes after compound; % increase of the mean of the control animals.

T1 sequence (P27487 39-766 limits assumed): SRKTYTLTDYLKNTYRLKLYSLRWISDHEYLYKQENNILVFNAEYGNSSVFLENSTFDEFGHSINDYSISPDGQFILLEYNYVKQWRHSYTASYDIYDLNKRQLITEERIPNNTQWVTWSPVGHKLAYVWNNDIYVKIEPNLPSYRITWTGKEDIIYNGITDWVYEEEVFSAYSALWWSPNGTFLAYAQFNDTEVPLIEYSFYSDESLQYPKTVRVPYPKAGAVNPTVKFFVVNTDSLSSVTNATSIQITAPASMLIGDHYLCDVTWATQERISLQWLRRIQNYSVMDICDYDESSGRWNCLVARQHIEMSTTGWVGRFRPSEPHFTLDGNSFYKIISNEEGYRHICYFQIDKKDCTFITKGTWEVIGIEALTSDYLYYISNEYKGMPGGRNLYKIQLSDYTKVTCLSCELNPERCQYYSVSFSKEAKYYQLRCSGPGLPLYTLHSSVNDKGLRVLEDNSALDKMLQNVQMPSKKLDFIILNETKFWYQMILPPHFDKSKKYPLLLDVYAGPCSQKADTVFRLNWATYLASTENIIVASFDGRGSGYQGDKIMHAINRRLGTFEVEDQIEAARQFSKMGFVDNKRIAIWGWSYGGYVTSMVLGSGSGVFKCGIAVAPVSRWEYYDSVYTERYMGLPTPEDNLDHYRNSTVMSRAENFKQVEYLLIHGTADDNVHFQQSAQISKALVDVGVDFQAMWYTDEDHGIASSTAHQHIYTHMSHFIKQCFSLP
T3 sequence (P27487 whole entry): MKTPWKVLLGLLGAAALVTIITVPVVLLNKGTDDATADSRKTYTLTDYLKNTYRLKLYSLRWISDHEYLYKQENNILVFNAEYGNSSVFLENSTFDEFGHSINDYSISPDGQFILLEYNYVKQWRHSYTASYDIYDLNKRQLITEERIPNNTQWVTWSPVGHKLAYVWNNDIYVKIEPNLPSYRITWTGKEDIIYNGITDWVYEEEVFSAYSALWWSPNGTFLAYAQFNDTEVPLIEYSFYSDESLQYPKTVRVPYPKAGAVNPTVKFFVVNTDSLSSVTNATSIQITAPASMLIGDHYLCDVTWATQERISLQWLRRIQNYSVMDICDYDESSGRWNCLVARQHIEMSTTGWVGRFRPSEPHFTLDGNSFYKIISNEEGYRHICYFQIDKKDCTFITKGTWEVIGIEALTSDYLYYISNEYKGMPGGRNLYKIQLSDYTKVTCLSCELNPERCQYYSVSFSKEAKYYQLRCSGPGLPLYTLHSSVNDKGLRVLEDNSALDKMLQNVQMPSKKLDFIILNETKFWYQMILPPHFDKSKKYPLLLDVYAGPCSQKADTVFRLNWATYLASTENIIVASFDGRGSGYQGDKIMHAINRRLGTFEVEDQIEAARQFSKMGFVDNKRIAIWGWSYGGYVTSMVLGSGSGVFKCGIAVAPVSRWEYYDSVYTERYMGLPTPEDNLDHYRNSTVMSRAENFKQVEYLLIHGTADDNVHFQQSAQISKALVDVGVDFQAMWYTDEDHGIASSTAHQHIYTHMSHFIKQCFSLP
T2 sequence (P14740 37-767 limits assumed): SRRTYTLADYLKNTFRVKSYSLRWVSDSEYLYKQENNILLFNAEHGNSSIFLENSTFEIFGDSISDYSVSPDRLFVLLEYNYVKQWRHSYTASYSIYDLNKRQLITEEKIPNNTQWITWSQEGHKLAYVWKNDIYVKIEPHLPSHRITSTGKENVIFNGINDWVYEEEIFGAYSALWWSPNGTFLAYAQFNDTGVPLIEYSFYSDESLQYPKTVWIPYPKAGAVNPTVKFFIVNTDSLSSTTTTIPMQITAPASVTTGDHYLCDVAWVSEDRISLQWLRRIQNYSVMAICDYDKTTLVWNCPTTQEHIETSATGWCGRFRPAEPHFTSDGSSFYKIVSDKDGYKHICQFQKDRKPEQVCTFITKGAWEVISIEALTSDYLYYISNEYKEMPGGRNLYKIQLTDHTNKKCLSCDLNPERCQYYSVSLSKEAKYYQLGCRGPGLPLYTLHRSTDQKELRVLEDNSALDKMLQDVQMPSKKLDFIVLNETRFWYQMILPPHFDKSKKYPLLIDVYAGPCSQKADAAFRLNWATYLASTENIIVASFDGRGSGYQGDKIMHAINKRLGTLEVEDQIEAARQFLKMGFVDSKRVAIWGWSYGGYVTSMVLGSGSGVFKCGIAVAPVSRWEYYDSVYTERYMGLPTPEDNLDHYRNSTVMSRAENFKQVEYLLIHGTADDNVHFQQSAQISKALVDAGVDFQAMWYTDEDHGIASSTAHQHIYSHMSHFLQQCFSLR
Procedure for rat plasma DPP-IV: Briefly, five μl of plasma are added to 96-well flat-bottom microtiter plates (Falcon), followed by the addition of 5 μl of 80 mM MgCl2 in incubation buffer (25 mM HEPES, 140 mM NaCl, 1% RIA-grade BSA, pH 7.8). After a 5 min. incubation at room temperature, the reaction is initiated by the addition of 10 μl of incubation buffer containing 0.1 mM substrate (H-Glycine-Proline-AMC; AMC is 7-amino-4-methylcoumarin). The plates are covered with aluminum foil (or kept in the dark) and incubated at room temperature for 20 min. […] A fluorescence-concentration curve of free AMC is generated using 0-50 μM solutions of AMC in assay buffer. The curve generated is linear and is used for interpolation of substrate consumption (catalytic activity in nmoles substrate cleaved/min). As with the previous assay, the potency of the test compounds as DPP-IV inhibitors, expressed as IC50, is calculated from 8-point, dose-response curves using a 4 parameter logistic function.

Consider `CC1(C)C2CCC(CNCC(=O)N3CCC[C@H]3C#N)C1C2` (single isomer, unassigned) [Ex. 25, Pyrrolidine, 1-[[(6,6-dimethylbicyclo[3.1.1]hept-2-yl)methyl]amino]acetyl-2-cyano-[1S[1α,2α(S*),5α]]-(S)--, monohydrochloride], for which the IC50 is 110 nM against human plasma DPP-IV, 140 nM against rat plasma DPP-IV and 140 nM on DPP-IV.

As for `N#Cc1ccc(NCCNCC(=O)N2CCC[C@H]2C#N)nc1` [Ex. 3, 1-[2-[(5-cyanopyridin-2-yl)amino]ethylamino]acetyl-2-cyano-(S)-pyrrolidine dihydrochloride], the “Increase of Insulin Response at 10 μmol/kg” value (from here on “Increase of Insulin Response”) with insulin resistant rats turned out to be 66%.

`N#C[C@@H]1CCCN1C(=O)CNC1(CO)CCCC1` [Ex. 5, 1-[(1-hydroxymethylcyclopent-1-yl)amino]acetyl-2-cyano-(S)-pyrrolidine]: the “Increase of Insulin Response” value in the experiment on insulin resistant rats is 108%.

For the molecule `N#C[C@@H]1CCCN1C(=O)CNCCNc1nccc(Cl)n1` [Ex. 7A, 1-[2-[(4-chloropyrimidin-2-yl)amino]ethylamino]acetyl-2-cyano-(S)-pyrrolidine], at DPP-IV, the IC50 worked out at 165 nM. That is a sub-micromolar value.

On to `N#C[C@@H]1CCCN1C(=O)CNCCNc1ncccc1Cl` [Ex. 7B, 1-[2-[(3-chloropyridin-2-yl)amino]ethylamino]acetyl-2-cyano-(S)-pyrrolidine], for which, on DPP-IV, the midpoint of inhibition, the IC50, lay at 175 nM.

Molecule `N#C[C@@H]1CCCN1C(=O)CNCCNc1nccc(C(F)(F)F)n1` [Ex. 7C] displayed an IC50 against DPP-IV of 290 nM.

As for `N#C[C@@H]1CCCN1C(=O)CNCCc1ccccc1Cl` [Ex. 7D, 1-[(2-chlorophenyl)ethylamino]acetyl-2-cyano-(S)-pyrrolidine], on DPP-IV, the IC50 was found to be 382 nM.

Turning to `N#C[C@@H]1CCCN1C(=O)CNCCNc1ccc([N+](=O)[O-])cn1` [Ex. 8, 1-[2-[(5-nitropyridin-2-yl)amino]ethylamino]acetyl-2-cyano-(S)pyrrolidine], in the experiment on insulin resistant rats, the “Increase of Insulin Response” value was determined as 144%.

With `N#C[C@@H]1CCCN1C(=O)CNCCNc1ncc(C(F)(F)F)cc1Cl` [Ex. 9A, 1-[2-[(3-chloro-5-trifluoromethylpyridin-2-yl)amino]ethylamino]acetyl-2-cyano-(S)-pyrrolidine], the IC50 against DPP-IV is 990 nM.

For the molecule `N#C[C@@H]1CCCN1C(=O)CNCCNc1ncc(Cl)cc1Cl` [Ex. 9C, 1-[2-[(3,5-dichloropyridin-2-yl)amino]ethylamino]acetyl-2-cyano-(S)-pyrrolidine], at DPP-IV, the IC50 worked out at 295 nM.

The molecule `COc1cc(Br)c(CCNCC(=O)N2CCC[C@H]2C#N)cc1OC` [Ex. 11, 1-[2-(2-bromo-4,5-dimethoxyphenyl)ethylamino]acetyl-2-cyano-(S)-pyrrolidine] came in with an IC50 against DPP-IV of 215 nM.

Consider `CC(C)OCCCNCC(=O)N1CCC[C@H]1C#N` [Ex. 12, 1-[3-(isopropoxy)propylamino]acetyl-2-cyano-(S)-pyrrolidine monohydrochloride], for which the results for the IC50 against human plasma DPP-IV, against rat plasma DPP-IV and against DPP-IV were 95 nM, 38 nM and 279 nM, respectively. Further, the “Increase of Insulin Response” value with insulin resistant rats is recorded as 59%.

As for `N#C[C@@H]1CCCN1C(=O)CNCCCN1CCCC1=O` [Ex. 14, 1-[3-(2-oxo-pyrrolidin-1-yl)propylamino]acetyl-2-cyano-(S)-pyrrolidine monohydrochloride], the values for the IC50 against human plasma DPP-IV, against rat plasma DPP-IV and on DPP-IV were 95 nM, 24 nM and 110 nM, respectively.

Take `CCOc1ccc(CCNCC(=O)N2CCC[C@H]2C#N)cc1` [Ex. 16, Pyrrolidine, 1-[[2-(4-ethoxyphenyl)ethyl]amino]acetyl-2-cyano-, (S)--, monohydrochloride]: the IC50 against human plasma DPP-IV is 170 nM; on rat plasma DPP-IV it was 60 nM; on DPP-IV it was 130 nM.

Regarding `N#C[C@@H]1CCCN1C(=O)CN[C@@H]1CCN(Cc2ccccc2)C1` [Ex. 17, Pyrrolidine, 1-[(1-phenylmethyl-3-pyrrolidinyl)amino]acetyl-2-cyano-, (S)--(R)--, dihydrochloride], the IC50 at human plasma DPP-IV was determined as 250 nM; on rat plasma DPP-IV it was 120 nM; against DPP-IV it was 60 nM.

On to `COc1ccc(CCNCC(=O)N2CCC[C@H]2C#N)cc1` [Ex. 18, Pyrrolidine, 1-[[2-(4-methoxyphenyl)ethyl]amino]acetyl-2-cyano-, (S)--, monohydrochloride], for which the figures for the IC50 on human plasma DPP-IV, against rat plasma DPP-IV and against DPP-IV were 160 nM, 70 nM and 100 nM, respectively.

For the molecule `COc1cccc(CCNCC(=O)N2CCC[C@H]2C#N)c1` [Ex. 19, Pyrrolidine, 1-[[2-(3-methoxyphenyl)ethyl]amino]acetyl-2-cyano-, (S)--, monohydrochloride], the IC50 against human plasma DPP-IV was 180 nM; against rat plasma DPP-IV it was 50 nM; against DPP-IV it was 120 nM.

Consider `CN(CCCNCC(=O)N1CCC[C@H]1C#N)c1ccccc1` [Ex. 22, Pyrrolidine, 1-[[3-[(phenyl)(methyl)amino]propyl]amino]acetyl-2-cyano-, (S)--, dihydrochloride], for which the IC50 against human plasma DPP-IV is 170 nM; at rat plasma DPP-IV it was 60 nM; against DPP-IV it was 150 nM.

Regarding `COc1ccc(CCNCC(=O)N2CCC[C@H]2C#N)cc1OC` [Ex. 23, Pyrrolidine, 1-[2-[(3,4-dimethoxyphenyl)ethyl]amino]acetyl-2-cyano-, (S)--, monohydrochloride], the IC50 on human plasma DPP-IV amounted to 40 nM; at rat plasma DPP-IV, 40 nM; against DPP-IV, 50 nM.

As for `COc1ccc(OC)c(CCNCC(=O)N2CCC[C@H]2C#N)c1` [Ex. 26, Pyrrolidine, 1-[[2-(2,5-dimethoxyphenyl)ethyl]amino]acetyl-2-cyano-. (S)--, monohydrochloride], the IC50 on human plasma DPP-IV is 240 nM; at rat plasma DPP-IV it was 70 nM; at DPP-IV, 170 nM.

For `N#C[C@@H]1CCCN1C(=O)CNCCC1=CCCCC1` [Ex. 27, Pyrrolidine, 1-[[2-(1-cyclohexenyl-1-yl)ethyl]amino]acetyl-2-cyano-, (S)--, monohydrochloride], the IC50 at human plasma DPP-IV came out at 150 nM; at rat plasma DPP-IV it was 160 nM; against DPP-IV it was 310 nM.

For `N#C[C@@H]1CCCN1C(=O)CNCCc1ccccn1` [Ex. 30, Pyrrolidine, 1-[[2-(2-pyridinyl)ethyl]amino]acetyl-2-cyano-, (S)--, dihydrochloride], the values for the IC50 against human plasma DPP-IV, against rat plasma DPP-IV and against DPP-IV were 80 nM, 90 nM and 650 nM, respectively.

On to `N#C[C@@H]1CCCN1C(=O)CNCc1ccccc1Sc1ccccc1CO` [Ex. 35, Pyrrolidine, 1-[[[2-[(2-hydroxymethyl)phenyl]thio]phenylmethyl]amino]acetyl-2-cyano-,(S)--, monohydrochloride], for which the IC50 against human plasma DPP-IV was found to be 1090 nM; against rat plasma DPP-IV, 340 nM; against DPP-IV it was 130 nM.

`COc1ccccc1CCNCC(=O)N1CCC[C@H]1C#N` [Ex. 36, Pyrrolidine, 1-[[2-(2-methoxyphenyl)ethyl]amino]acetyl-2-cyano-, (S)--, monohydrochloride]: the half-inhibitory concentration (IC50) at human plasma DPP-IV amounted to 170 nM; against rat plasma DPP-IV, 80 nM; on DPP-IV, 160 nM.

Turning to `N#C[C@@H]1CCCN1C(=O)CNCCc1ccc(Cl)cc1Cl` [Ex. 39, Pyrrolidine, 1-[[2-(2,4-dichlorophenyl)ethyl]amino]acetyl-2-cyano-, (S), monohydrochloride], the IC50 against human plasma DPP-IV was 220 nM; on rat plasma DPP-IV, 200 nM; at DPP-IV it was 380 nM.

`C[C@H](NCC(=O)N1CCC[C@H]1C#N)[C@H](O)c1ccccc1` [Ex. 41, Pyrrolidine, 1-[(2-hydroxy-2-phenylethyl)amino]acetyl-2-cyano-[2S-[1R*,2S*]-monohydrochloride]: the IC50 was found to be 100 nM against human plasma DPP-IV, 50 nM at rat plasma DPP-IV and 140 nM at DPP-IV.

For the molecule `N#C[C@@H]1CCCN1C(=O)CNCCc1ccccc1F` [Ex. 42, Pyrrolidine, 1-[[2-(2-fluorophenyl)ethyl]amino]acetyl-2-cyano-, (S)--, monohydrochloride], the IC50 at human plasma DPP-IV was 140 nM; on rat plasma DPP-IV it was 180 nM; against DPP-IV, 240 nM.

Regarding `COc1cc(CCNCC(=O)N2CCC[C@H]2C#N)cc(OC)c1` [Ex. 46, Pyrrolidine, 1-[2-[(3,5-dimethoxyphenyl)ethyl]amino]acetyl-2-cyano-, (S)--, monohydrochloride], the values for the IC50 against human plasma DPP-IV, against rat plasma DPP-IV and at DPP-IV were 280 nM, 60 nM and 150 nM, respectively.

With `N#C[C@@H]1CCCN1C(=O)CNC1CCN(Cc2ccccc2)CC1` [Ex. 66, Pyrrolidine, 1-[(1-phenylmethyl-4-piperidinyl)amino]acetyl-2-cyano-, (S)--, monohydrochloride], the IC50 came to 130 nM against human plasma DPP-IV, 40 nM at rat plasma DPP-IV and 60 nM against DPP-IV.
